Data reported in patent US20250375444A1, “METHOD OF TREATING ALZHEIMER’S DISEASE” (AmyriAD Pharma, Inc., priority 2021, published 2025).
“Also recorded” adds a separate entry of the source. Where two headings read alike, the source gives them in different places.

Legend:
[1] = tested on: amyloid precursor protein; conditions: cited from earlier work
[2] = tested on: acetylcholine (ACh) levels; conditions: rodent brains; cited from earlier work
[3] = tested on: pro-ADAM10 and/or BACE protein; conditions: cited from earlier work
Aβ-like deposits = conditions: in vivo; cited from earlier work
AD subjects [4] = assay: 12-week open-label multicenter safety extension study (Study 401) of AD101
Method: (§1) Subjects were titrated as follows: all subjects receive 60 mg once daily for the first month, 120 mg once daily for the second month and 180 mg once daily for the third month. Dose increases were dependent on the subject's tolerability of the previous dose.

protein kinase C = conditions: cited from earlier work
AD subjects [5] = assay: Safety extension study: subjects started on memantine hydrochloride; type: in vivo, human; conditions: for Adverse Events during Memantine Co-administration: 401: 180 mg AD101
Method: as §1

[6] = tested on: extracellular ACh and dopamine concentrations
[7] = tested on: Ca^2+/calmodulin-dependent protein kinase II (CaMK II); conditions: cited from earlier work
[8] = tested on: long-term potentiation (LTP); conditions: cited from earlier work
[9] = tested on: nicotine-stimulated release of ACh
[10] = tested on: ubiquitin-proteasome system pathway; conditions: cited from earlier work
[11] = tested on: subjects having probable AD; conditions: cited from earlier work
[12] = Total, unique subjects (N = 293)
[13] = Total, unique subjects (N = 293), denominator 293
[14] = all doses, safety population 293 subjects

## O=C1N=C2C=CC=CN2C12Cc1ccccc1C2 [AD101, 1′,3′-dihydro-2H-spiro[imidazo[1,2α]pyridine-3,2′-inden]-2-one]
[1]
  Cleavage of amyloid precursor protein: induce cleavage
[2]
  Acetylcholine (ACh) levels: increase
[3]
  Level of pro-ADAM10 and/or BACE protein: decrease the level
Aβ-like deposits
  Accumulation of Aβ-like deposits: decreases accumulation
AD subjects [4]; 60 mg QD (N = 293)
  Discontinued Early: 16 n
  Discontinued Early: Adverse Event: 8 n
AD subjects [4]; 60 mg QD (N = 293), denominator 293
  Discontinued Early: Adverse Event: (2.7) %
AD subjects [4]; 120 mg QD (N = 276)
  Discontinued Early: 14 n
  Discontinued Early: Adverse Event: 4 n
AD subjects [4]; 120 mg QD (N = 276), denominator 293
  Discontinued Early: Adverse Event: (1.4) %
AD subjects [4]; 180 mg (N = 243)
  AE: Fatigue: 0 n
  AE: Somnolence: 0 n
AD subjects [4]; 180 mg QD (N = 243)
  Discontinued Early: 6 n
  Discontinued Early: Adverse Event: 5 n
AD subjects [4]; 180 mg QD (N = 243), denominator 293
  Discontinued Early: Adverse Event: (1.7) %
AD subjects [4]; 180 mg QD vs 60 mg QD and 120 mg QD
  Safety of 180 mg QD versus lower doses: at least as safe as
AD subjects [4]; 3-month open-label extension, 60 to 180 mg QD
  New safety or tolerability issues: No new safety or tolerability issues were identified
AD subjects [4]; 60, 120, 180 mg
  Pattern of nature or frequency of specific AE related to dose: There does not appear to be any pattern related to AD101 dose
AD subjects [4]; SAE #00036: syncope, person on 180 mg
  Relationship of SAEs to study drug (investigator): unrelated to study drug with the exception of SAE #00036
AD subjects [4]; [12]
  Discontinued Early: 36 n
  Discontinued Early: Adverse Event: 17 n
  Subjects with any AE: 51.2%
AD subjects [4]; [13]
  Discontinued Early: (12.3) %
  Discontinued Early: Adverse Event: (5.8) %
AD subjects [4]; [14]
  Serious Adverse Events (SAEs), number of events: 17
  Subjects with Serious Adverse Events: 17 subjects
AD subjects [4]; dose at time of event 60 mg
  SAE Event (individual subject): Asthma; also recorded: Chest Pain; also recorded: Fractured Wrist; also recorded: Seizure; also recorded: Syncope (vasovagal); also recorded: Vestibular neuronitis; also recorded: GI bleed 2°to
AD subjects [4]; dose at time of event 120 mg
  SAE Event (individual subject): Lightheaded; also recorded: Fractured right; also recorded: Fx Left
AD subjects [4]; dose at time of event 180 mg
  SAE Event (individual subject): Syncope; also recorded: Fractured; also recorded: Chest Pain; also recorded: Pneumonia/Pulmonary
AD subjects [4]; dose at time of event N/A (10 days after completing 401)
  SAE Event (individual subject): Multiple CVAs
AD subjects [4]; multiple cerebral vascular accidents, deemed unrelated, 10 days post-study after 60, 120 and 180 mg for 4 weeks each
  Death: 1
AD subjects [4]; on 60 mg AD101
  SAEs by dose at time of event: 7
AD subjects [4]; on 120 mg AD101
  SAEs by dose at time of event: 5
AD subjects [4]; on 180 mg AD101
  SAEs by dose at time of event: 4
Protein kinase C
  Activity of protein kinase C: increased activity
AD subjects [5]; 5 subjects taking memantine hydrochloride, AD101 up to 180 mg
  Laboratory or vitals sign abnormalities: no clinically significant laboratory or vitals sign abnormalities were observed
AD subjects [5]; Subject 03-2003, memantine 5 mg BID ongoing
  Adverse Events during Memantine Co-administration: No new AEs.
AD subjects [5]; Subject 14-2108, memantine titrated 5 mg QD to 10 mg BID over 4 weeks
  Adverse Events during Memantine Co-administration: No new AEs.
AD subjects [5]; Subject 14-2178, memantine titrated 5 mg QD to 10 mg BID over 4 weeks
  Adverse Events during Memantine Co-administration: Sinus headache ×1 day,; also recorded: Dizzy/lightheaded over 18; also recorded: Vomiting ×1 day, occurred 2
AD subjects [5]; Subject 18-2018, memantine 10 mg QD
  Adverse Events during Memantine Co-administration: Decreased appetite ×9 days; also recorded: UTI ×7 days began 30 days; also recorded: Confusion ×8 days, began 38; also recorded: Anxiety, ongoing at; also recorded: URI ×14 days began 30 days
AD subjects [5]; Subject 18-2122, memantine 10 mg QD
  Adverse Events during Memantine Co-administration: No new AEs.
[6]; cerebral cortex
  Extracellular ACh concentrations: increases
[6]; hippocampus
  Extracellular ACh concentrations: increases
  Extracellular dopamine concentrations: increases
[7]
  Activity of CaMK II: increased activity
[8]
  Long-term potentiation (LTP): enhancement
[9]
  Nicotine-stimulated release of ACh: potentiates
[10]
  Activity of the ubiquitin-proteasome system pathway: enhance the activity
[11]; 10, 60 and 120 mg per day analyzed separately
  Dose response in primary outcome measures: no discernable dose response
[11]; up to 120 mg QD, 12 weeks, with 10 mg donepezil hydrochloride QD
  AD101-related safety concerns: No significant AD101-related safety concerns were identified
